We go through one molecule from patent US8268767B2, “Personal wash cleanser comprising defined alkanoyl compounds, defined fatty acyl isethionate surfactant product and skin or hair benefit agent” (priority 2010, dated 2012).

The subject of this data set is skin (patch test sites on the intrascapular area of the back). Nature of the data set: Patch Test, 14-day cumulative irritation test. As to conditions: for Patch test Total irritation score: cleansers diluted to 25% w/w, 14-day cumulative score. As to the method:
This was randomized, double-blind study. A sufficient number of subjects were recruited to ensure that 25 subjects completed the study. The 14-day cumulative irritation test was conducted as follows. Patching occurred for 14 consecutive days, except on Sundays. Patches applied on Saturday were left in place until Monday, when freshly prepared patches were applied. The designated patch test sites were approximately 2 cm×2 cm on the intrascapular area of the back. Approximately 0.2 mL of the test product was placed onto a Parke-Davis Readi-Bandage® occlusive patch that measured 2 cm×2 cm. Solutions were made by diluting the cleansers to 25% w/w in distilled water. The patch was then applied to the designated test site. The patches were secured with hypoallergenic tape (Scanpor {Allerderm} as needed). A 0.5% sodium dodecyl sulfate (SDS) solution was used as the control in the test.
Each day following application, the patches were removed, the sites evaluated and identical patches reapplied to the same test sites. All evaluations were made using the following 6-point scoring system: • 0=No evidence of any effect • +=Barely perceptible (minimal, faint, uniform or spotty erythema) numerically equivalent to 0.5 • 1=Mild (pink, uniform erythema covering most of the contact site) • 2=Moderate (pink-red, erythema uniform in the entire contact site) • 3=Marked (bright red erythema with/without petechiae or papules) • 4=Severe (deep red erythema with/without vesiculation or weeping)
If a dermal reaction of 3 or 4 occur with any of the test articles at any point during the study, further patch testing on that subject was terminated at the test site involved, and the attained score was assigned to that site for the subsequent scheduled test days.
Cumulative irritation scores, which were the sum of the numerical irritation grades assigned daily during the 14-day test period, were calculated at the end of the study to compare mildness of the test products. […] The data were statistically analyzed using Tukey-Kramer Comparison, and statistical significance was determined at the 95% confidence level.

Where [1] appears, read: first patch test of Table 1 (0.5% SDS control = 783).
Setting [2] is: second patch test of Table 1 (0.5% SDS control = 912).

With `CCCCCCCCCCCCOS(=O)(=O)[O-].[Na+]` [0.5% SDS Solution, sodium dodecyl sulfate], the “Total irritation score compared to 0.5% SDS solution” value under setting [1] turned out to be 100% and the “Total irritation score compared to 0.5% SDS solution” value under setting [2] came out at 100%. In addition, the “Patch test Total irritation score” value by setting is: under setting [1], 783; under setting [2], 912.
